Assay results reported in patent US20090269394A1, “METHODS AND COMPOSITIONS FOR TREATING ONCHOMYCOSIS” (priority 2008, published 2009).
Converted amounts (≈) assume the structure as drawn. Where two headings read alike, the source gives them in different places. Blank lines part the entries; values can stand above or below the compound they belong to.

Experiments:
[1] = cited from earlier work
[2] = tested on: Candida albicans isolates; assay: MIC/MFC microtiter broth dilution; type: cell-based; conditions: NB-002 as μg CPC/ml; for MIC90: Candida albicans, read-out: MIC90
[3] = tested on: Trichophyton mentagrophytes; assay: MIC/MFC microtiter broth dilution; type: cell-based
Epidermophyton floccosum = assay: MIC/MFC microtiter broth dilution; type: cell-based; conditions: n = 6 isolates; NB-002 as μg CPC/ml
[4] = Azole-Resistant isolates (n = 24)
[5] = Azole-Susceptible isolates (n = 10)
[6] = n = 14 isolates, NB-002 as μg CPC/ml

SMILES: CN(C/C=C/C#CC(C)(C)C)Cc1cccc2ccccc12.Cl [Terbinafine hydrochloride]
solubility in ethanol ([1]; in words): soluble | solubility in methanol and dichloromethane ([1]; in words): freely soluble | solubility in water ([1]; in words): slightly soluble

MIC90 [2, 4]: > 64 µg/mL | MIC90 [2, 5]: 0.5 µg/mL (≈ 1.63 µM)
SMILES: OC(Cn1cncn1)(Cn1cncn1)c1ccc(F)cc1F [Fluconazole]
MFC90 [2, 4]: >64 µg/mL | MFC90 [2, 5]: >64 µg/mL

MIC90 ([3]; Trichophyton mentagrophytes): 0.25 µg/mL (≈ 0.655 µM) | MIC50 ([3]; Trichophyton mentagrophytes, read-out: MIC50): 0.25 µg/mL (≈ 0.655 µM) | MIC range [3, 6]: 0.125 to 0.25 µg/mL | MIC range (Epidermophyton floccosum): 0.0625 to 0.125 µg/mL
SMILES: Clc1ccc(COC(Cn2ccnc2)c2ccc(Cl)cc2Cl)cc1 (stereo not drawn) [Econazole]
MFC50 [3, 6]: 8 µg/mL (≈ 21 µM) | MFC90 [3, 6]: >16 µg/mL | MFC Range (Epidermophyton floccosum): 0.0625 to 4 µg/mL

SMILES: Clc1ccc(COC(Cn2ccnc2)c2ccc(Cl)cc2Cl)c(Cl)c1 (stereo not drawn) [miconazole]
Ethanol Solubility [1]: 94 mg/mL | Log P [1]: 6.1 | Soybean Solubility [1]: 74 mg/mL | pKa [1]: 6.67
